Assay results: US20090029943A1, “Glucosamine and Derivatives Thereof Useful as TG Inhibitors” (priority 2005, published 2009)
“Also recorded” adds a separate entry of the source.

How the values were obtained:
[1] = system: transglutaminase in SH-SY5Y/TG cells (I-κBα level); assay: I-κBα Western blotting in SH-SY5Y/TG neuroblastoma cells; type: cell-based, human; conditions: 10 mM glucosamine, 3 hrs, cytosol fraction; FIG. 4A
Description: For use in the transfection of transglutaminase, the human neuroblastoma cell SH-SY5Y was purchased from American Type Culture Collection. SH-SY5Y was cultured in DMEM (Dulbecco's modified Eagle's Medium)/Ham F12 medium (50:50) supplemented with 10% heat-inactivated fetal bovine serum, glutamine, and penicillin/streptomycin. In order to avoid clonal mutation, an Flp-In™ system (Invitrogen, Co) was introduced. SH-SY5Y transformed with a mock vector was used as a […] (Wild) while a full-length transglutaminase gene was cloned in a pcDNA5/FRT vector to prepare SH-SY5Y/TG. Allowing NF-kB to be usually active therein (J. Biol. Chem. 279, 53725-53735, 2004), the strain thus constructed is widely used as an NF-kB activation model based on the overexpression of transglutaminase. […] The inhibitory effects of putative transglutaminase inhibitors were investigated by incubating SH-SY5Y/TG cells in the presence of 10 mM glucosamine (GM), 200 μM cystamine (CTM), and 2 nM iodoacetamide (IAA) for 3 hrs, followed by obtaining cytosol fractions with the aid of a nuclear extraction kit (Sigma) from the cells. As a negative control, a cytosol fraction obtained from a cell culture incubated in the absence of any transglutaminase inhibitor was used (Ct). […]

[2] = molecular target: T1, transglutaminase in LPS-activated microglia cells (Mus musculus, UniProt P21981); assay: Intracellular transglutaminase activity in LPS-activated BV2 microglia (14C-putrescine incorporation); type: cell-based, murine; conditions: LPS 24 hrs; glucosamine 1, 10 or 100 mM; FIG. 3B
T1 construct: In order to detect the intracellular activity of transglutaminase, the cells were incubated for 24 hrs; endogenous in cells
T1 sequence (P21981 1-686): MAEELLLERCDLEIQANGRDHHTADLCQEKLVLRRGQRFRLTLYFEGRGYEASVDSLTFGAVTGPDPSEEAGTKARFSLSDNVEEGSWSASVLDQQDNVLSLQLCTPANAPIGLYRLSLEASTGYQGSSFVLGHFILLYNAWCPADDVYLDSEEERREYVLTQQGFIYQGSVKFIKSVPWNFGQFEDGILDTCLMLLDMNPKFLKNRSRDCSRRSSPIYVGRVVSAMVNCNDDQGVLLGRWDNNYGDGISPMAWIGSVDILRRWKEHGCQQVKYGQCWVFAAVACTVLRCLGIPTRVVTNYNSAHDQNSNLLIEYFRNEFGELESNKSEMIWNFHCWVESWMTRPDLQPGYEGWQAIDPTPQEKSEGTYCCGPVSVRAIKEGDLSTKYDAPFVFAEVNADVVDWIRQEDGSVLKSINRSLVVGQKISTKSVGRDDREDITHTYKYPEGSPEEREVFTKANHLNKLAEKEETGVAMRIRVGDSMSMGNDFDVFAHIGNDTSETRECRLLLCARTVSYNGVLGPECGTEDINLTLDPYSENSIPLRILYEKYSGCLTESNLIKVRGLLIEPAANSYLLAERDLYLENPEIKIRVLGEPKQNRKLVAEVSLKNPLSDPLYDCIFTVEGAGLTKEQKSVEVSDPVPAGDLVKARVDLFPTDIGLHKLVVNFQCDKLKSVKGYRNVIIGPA

[3] = system: iNOS (NF-kB-inducible) in LPS-activated BV2 microglia; assay: iNOS Western blotting in LPS-activated BV2 microglia cells; type: cell-based, murine; conditions: LPS 100 ng/ml 24 hrs; glucosamine 1, 10 or 100 mM; FIG. 3A
Description: The inhibitory effects of glucosamine on transglutaminase were determined by monitoring the activity of the transcriptional factor NF-kB through the measurement of level of NF-kB-inducible iNOS.
The cells were maintained in DMEM (Dulbecco's Modified Eagle's medium) (Invitrogen) supplemented with 10% fetal bovine serum and penicillin/streptomycin in a 5% CO2, 37° C. incubator. BV-2 was activated by treatment with LPS (100 ng/ml; Sigma) for 24 hrs.
In order to detect the intracellular activity of transglutaminase, the cells were incubated for 24 hrs in a medium supplemented with 4.5 nmoles of ^14C-putrescine (1.11×10^6 dpm)/ml. Cells were grouped according to treatment without or with 1, 10 or 100 mM of glucosamine. Following LPS treatment for 24 hrs, cells in each group were homogenized with a radioimmunoprecipitation assay buffer (1×PBS, 1% Nonidet P-40, 0.5% sodium deoxycholate and 0.1% SDS) containing a protease inhibitor. The homogenates were centrifuged at 100,000×g for 1 hr. and the supernatants were subjected to iNOS Western blotting.
After being separated from a 10˜20% gradient SDS gel using Tricine buffer (Invitrogen), the Western blotting samples were transferred onto polyvinylidene difluoride membrane (Invitrogen). Western blotting was conducted as usual. […]

[4] = molecular target: T2, purified transglutaminase enzyme (Sigma T5398) (UniProt P08587); assay: In vitro assay for inhibition of transglutaminase activity (14C-putrescine incorporation into succinylated casein); type: biochemical; conditions: glucosamine 1, or 100 mM; 37° C., 1 hour; FIG. 2
T2 construct: purchased Sigma T5398
T2 sequence (P08587 1-690): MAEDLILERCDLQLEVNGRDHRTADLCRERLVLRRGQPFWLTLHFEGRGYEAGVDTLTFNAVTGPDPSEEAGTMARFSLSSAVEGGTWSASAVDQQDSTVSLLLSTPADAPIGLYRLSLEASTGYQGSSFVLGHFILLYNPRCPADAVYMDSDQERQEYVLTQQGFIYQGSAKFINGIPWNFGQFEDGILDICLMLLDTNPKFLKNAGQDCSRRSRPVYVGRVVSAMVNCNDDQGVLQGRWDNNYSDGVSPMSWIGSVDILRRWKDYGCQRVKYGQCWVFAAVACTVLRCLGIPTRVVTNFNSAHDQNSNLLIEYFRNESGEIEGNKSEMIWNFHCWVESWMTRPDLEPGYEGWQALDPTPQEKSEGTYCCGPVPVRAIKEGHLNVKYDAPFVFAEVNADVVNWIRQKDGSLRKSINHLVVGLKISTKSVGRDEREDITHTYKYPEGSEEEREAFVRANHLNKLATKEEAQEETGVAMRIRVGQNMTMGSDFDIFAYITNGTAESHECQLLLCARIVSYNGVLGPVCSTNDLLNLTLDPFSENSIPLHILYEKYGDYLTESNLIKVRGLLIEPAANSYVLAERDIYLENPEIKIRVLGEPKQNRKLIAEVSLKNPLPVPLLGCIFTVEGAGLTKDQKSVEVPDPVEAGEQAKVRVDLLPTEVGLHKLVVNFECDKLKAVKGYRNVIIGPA
Description: Consequently, glucosamine and derivatives thereof are transglutaminase inhibitors.
In the presence of various concentrations of […], which competes with putrescine, the reaction between [1,4-^14C] putrescine and succinylated casein, catalyzed by transglutaminase, was observed.
A reaction buffer (0.5 ml) was prepared as follows: 0.1 M triacetate pH 7.5, 1% succinylated casein, 1 mM EDTA, 10 mM CaCl2, 0.5% lubrol PX, 5 mM DTT, 0.15 M NaCl and 0.5 mCi [1,4-^14C] putrescine (Dupont-New England Nuclear; 118 Ci/mole). To this reaction buffer were added 2 μl of a purified transglutaminase enzyme (Sigma T5398), glucosamine and a 50 mM Tris-acetate buffer so as to yield a final volume of 100 μl, having a glucosamine concentration of 1, or 100 mM. Mixing was followed by reaction at 37° C. for 1 hour before termination with 4.5 ml of cold (4° C.) 7.5% TCA. The TCA-precipitates thus formed were filtered through a GF/glass fiber filter, washed with 10 volumes of 5% TCA and dried, followed by measuring transglutaminase-catalyzed ^14C-putrescine-labelled casein with a β-counter.
The relative inhibition activities (%) of glucosamine against transglutaminase are depicted in FIG. 2.

N[C@H]1C(O)O[C@H](CO)[C@@H](O)[C@@H]1O (stereo partly shown) [glucosamine]
transglutaminase inhibition shown by level of expression of I-κBα [1]: identified as a transglutaminase inhibitor
activity of transglutaminase in LPS-activated microglia [2]: inhibited in a glucosamine dose-dependent manner
level of expression of iNOS [3]: reduces the level of expression of iNOS
activity of transglutaminase (relative inhibition activity) [4]: poorer activity of transglutaminase; also recorded: inhibited in a glucosamine dose-dependent manner
